In patent US5324747A, “N-substituted anilines, inhibitors of phospholipases A2” (Hoffmann-La Roche Inc., priority 1992, dated 1994):

Key:
[1] = test system: Croton Oil Mouse Ear Edema; experiment: Croton Oil Mouse Ear Edema Test; format: in vivo, CD-1 mice; details: topical, coapplied, 6 hours
Protocol: Twenty five μl of a 1% croton oil solution [dissolved in a mixture of pyridine/water/diethyl ether at a ratio of 5/20/75 (croton oil vehicle)] are applied to the outer side of the right ear of 3-4 week old made CD-1 mice (8 animals per group). The test compounds are dissolved directly in the 1% croton oil solution at various concentrations and coapplied. Control animals receive 25 μl of croton oil vehicle on the right ear. Biopsy punches are removed at 6 hours from the right ear of the animals using a 6 mm skin trephine (Roboz, Washington, D.C.) and the wet weight of the ear punches is determined. The weight of the biopsy punches is a measure of ear inflammation, primarily edema. The data are expressed as percent inhibition relative to control groups.

PLA2 Rat Paw Edema = experiment: Phospholipase A2 Rat Paw Edema; format: in vivo, Lewis rats; details: Rattus norvegicus; 2 hr; 30 mg/kg; read-out: % Inhib of PLA2 Rat Paw Edema 2 hr (30 mg/kg)
Outline: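 Lewis rats (~200 g, n=7) dosed i.p. (in DMSO) or orally (in Labrafil M-1944CS) 1 h before subplantar injection of 5 ug Naja naja PLA2 into right hind paw. Paw volume by plethysmometry at 0.5, 2 and 4 hr minus baseline; % change versus vehicle, Student's t-test.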

HSF-PLA2 = molecular target: T1, HSF-PLA2 (Homo sapiens, UniProt P14555); experiment: Assay for Inhibition of HSF-PLA2 In Vitro; format: biochemical; details: for IC50: read-out: Inhib of HSF-PLA2 IC50; for inhibition at 1 µM: read-out: Inhib of HSF-PLA2, % inhibition
T1 construct: extracellular enzyme obtained from human synovial fluid (HSF-PLA2); from tissue; host or cells: pooled human synovial fluid, added at 0.1% (v/v)
T1 sequence (P14555 21-144): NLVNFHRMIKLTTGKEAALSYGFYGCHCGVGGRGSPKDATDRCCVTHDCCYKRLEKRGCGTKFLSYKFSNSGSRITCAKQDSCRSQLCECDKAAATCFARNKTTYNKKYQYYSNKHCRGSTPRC
Outline: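 Extracellular PLA2 isolated from human synovial fluid, incubated 30 min at 37 °C with 14C-labelled phospholipid substrate in duplicate. Lipids were chloroform-extracted, and released 14C-oleic acid was separated from substrate by silica TLC; a no-enzyme control was run in each experiment.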

[2] = test system: adjuvant arthritis model in rats; experiment: Established Adjuvant Arthritis Test; format: in vivo
Protocol: Established Adjuvant Arthritis Test
Representative compounds of the invention were tested in the standard adjuvant arthritis model in rats, induced by Freunds complete adjuvant, as described by C. E. Brinckerhoff, J. W. Coffey and A. C. Sullivan, Science, 221, p. 756-758 (1983).

[3] = test system: rat carrageenan-induced paw edema; experiment: Rat Carrageenan Paw Edema; format: in vivo, Lewis rats; details: 2 h; for inhibition in vivo at 30 mg/kg: 30 mg/kg ip
Protocol: Rat Carrageenan Paw Edema
Representative compounds of the invention were tested in rat carrageenan-induced paw edema to determine their ability to inhibit this acute inflammatory response. Test compounds are administered intraperitoneally or orally to groups of seven Lewis rats (≈200 gm) 1 hr prior to carrageenan administration. The test compounds are dissolved in dimethyl sulfoxide for intraperitoneal administration and dissolved or suspended in Labrafil […] for oral administration. At 0 hour, 0.1 mL of 1% carrageenan dissolved in pyrogen free saline is injected subplantarly into the right hind paw to elicit the inflammatory response. The volume (in mL) of the right hind paw is measured by immersion of the paw to the level of the lateral malleolus in an aqueous plethysmometer immediately prior to the injection of carrageenan and then at 1, 2 and 4 hr after carrageenan injection. The paw edema is calculated by substracting the zero time reading from the readings taken after injection. The percent change of the edema volume from the vehicle treated control is calculated to determine the activity of the test compound. Statistical analysis of the mean paw edema values of the control versus the treated groups are performed using Student's t-test.

[4] = test system: Naja naja snake venom PLA2 (SV-PLA2); experiment: Assay for inhibition of snake venom PLA2 (SV-PLA2) in vitro; format: biochemical; details: read-out: Inhib of SV-PLA2 IC50
Protocol: ASSAY FOR INHIBITION OF SNAKE VENOM PLA2 (SV-PLA2) IN VITRO
Several representative compounds of the invention were also tested as inhibitors of Naja naja snake venom PLA2 (SV-PLA2). The assay employed in this study was the spectrophotometric method described by: C. Vigo, G. P. Lewis and P. J. Piper in Biochemical Pharmacology, 29:623-627 (1983), which was modified as described by: A. F. Welton, L. D. Tobias, C. Fiedler-Nagy, W. Anderson, W. Hope, K. Meyers and J. W. Coffey in "Plant Flavonoids in Biology and Medicine: Biochemical, Pharmacological and Structure-Activity Relationships", p 231-242, (1986) Alan R. Liss, Inc. The PLA2 paw edema model, (data in Table I) is initiated by injection of SV-PLA2.

SMILES	% Inhib of Croton Oil Mouse Ear Edema (1 mg) [1]	inhibition in vivo at 30 mg/kg (PLA2 Rat Paw Edema)	IC50 (HSF-PLA2)	Change in Paw Volume (mL) Treated ([2]; 10 mg/kg ip)	inhibition in vivo at 30 mg/kg [3]	Change in Paw Volume (mL) Treated ([2]; 30 mg/kg ip)	inhibition at 1 µM (HSF-PLA2)	inhibition in vivo at 10 mg/kg ([3]; 10 mg/kg ip)	IC50 [4]
CCCCCCCCCCCCCCCCCCOc1cc(OCCCOc2ccccc2)cc(N(CC(=O)O)CC(=O)O)c1 [Example 58, N-(Carboxymethyl)-N-[3-(octadecyloxy)-5-(3-phenoxypropoxy)phenyl]glycine]	78%	36%	60 nM	0.37 ± 0.14 mL	29%	–	–	–	–
CCCCCCCCCCCCCCCCCCOc1cc(OCCCP(=O)(OCC)OCC)cc(N(CC(=O)O)CC(=O)O)c1 [Example 88, N-(Carboxymethyl)-N-[3-[3-(diethoxyphosphinyl)propoxy]-5-(octadecyloxy)phenyl]glycine]	43%	46%	400 nM	–	57%	-0.90 ± 0.11 mL	–	–	–
CCCCCCCCCCCCCCCCCCOc1cc(NS(=O)(=O)C(F)(F)F)cc(N(CC(=O)O)CC(=O)O)c1 [Example 162, N-(Carboxymethyl)-N-[3-(octadecyloxy)-5-[[(trifluoromethyl)sulfonyl]amino]phenyl]glycine]	79%	65%	–	–	69%	–	82%	–	–
CCCCCCCCCCCCCCCCCCOc1cc(OCCCOc2cccc([N+](=O)[O-])c2)cc(N(CC(=O)O)CC(=O)O)c1 [Example 58m, N-(carboxymethyl)-N-[3-[3-(3-nitrophenoxy)propoxy]-5-(octadecyloxy)phenyl]glycine]	60%	52%	–	0.40 ± 0.13 mL	–	–	79%	61%	–
CCCCCCCCc1ccc(N(CC(=O)O)CC(=O)O)cc1 [Example 39c, N-(carboxymethyl)-N-(4-octylphenyl)glycine]	–	–	1700 nM	–	–	–	–	–	66 nM
CCCCCCCCCCCCCCCCCCOc1cc(OCCCOc2cccc(N)c2)cc(N(CC(=O)O)CC(=O)O)c1 [Example 58n, N-(carboxymethyl)-N-[3-[3-(3-aminophenoxy)propoxy]-5-(octadecyloxy)phenyl]glycine]	64%	4%	130 nM	0.23 ± 0.12 mL	65%	–	–	–	–
CCCCCCCCCCCCCCCCCCOc1cc(OCCCCCc2cccc(O)c2O)cc(N(CC(=O)O)CC(=O)O)c1 [Example 146]	18%	74%	200 nM	–	55%	–	–	–	–
CCCCCCCCCCCCCCCCCCOc1cc(OCCCP(=O)(O)OCC)cc(N(CC(=O)O)CC(=O)O)c1 [Example 89]	–	45%	–	–	–	-0.68 ± 0.08 mL	31%	–	–
CCCCCCCCCCCCOc1cc(OCCCCCCCCCCCC)cc(N(CC(=O)O)CC(=O)O)c1 [Example 6d, N-(carboxymethyl)-N-[3,5-bis(dodecyloxy)phenyl]glycine]	21%	–	50 nM	–	–	–	–	–	170 nM
CCCCCCCCCCCCCCCCCCOc1cc(OCCCOc2cccc(Br)c2)cc(N(CC(=O)O)CC(=O)O)c1 [Example 108, N-(Carboxymethyl)-N-3-[3-[3-(bromophenoxy)propoxy]-5-(octadecyloxy)phenyl]glycine]	34%	12%	–	–	33%	–	92%	–	–
CCCCCCCCCCCCCCCCCCOc1cc(OCCCOc2ccc([S+](C)[O-])cc2)cc(N(CC(=O)O)CC(=O)O)c1 (centres unmarked) [Example 159]	59%	78%	–	–	44%	–	100%	–	–
CCCCCCCCCCOc1cccc(N(CC(=O)O)CC(=O)O)c1 [Example 36a, N-(carboxymethyl)-N-[3-(decyloxy)phenyl]glycine]	–	35%	2900 nM	–	47%	–	–	–	–
CCCCCCCCOc1cc(OCCCCCCCC)cc(N(CC(=O)O)CC(=O)O)c1 [Example 6c, N-(carboxymethyl)-N-[3,5-bis(octyloxy)phenyl]glycine]	0%	7%	400 nM	–	–	–	–	–	22 nM
CCCCCCCCCCCCCCCCCCOc1cc(C(=O)O)cc(N(CC(=O)O)CC(=O)O)c1 [Example 70, N-[3-Carboxy-5-(octadecyloxy)phenyl]-N-(carboxymethyl)glycine]	0%	45%	1000 nM	0.30 ± 0.09 mL	–	–	–	–	–
CCCCCCCCCCCCCCCCCCOc1cc(OCCCOc2ccc(S(C)(=O)=O)cc2)cc(N(CC(=O)O)CC(=O)O)c1 [Example 161, N-(Carboxymethyl)-N-[3-[3-[4-(methylsulfonyl)phenoxy]propoxy]-5-(octadecyloxy)phenyl]glycine]	87%	66%	–	–	56%	–	100%	–	–
CCCCCCCCCCCCCCCCCCOc1cc(OCCCOc2ccc(C(C)(C)C)cc2)cc(N(CC(=O)O)CC(=O)O)c1 [Example 177, N-(Carboxymethyl)-N-[3-[3-[4-(1,1-dimethylethyl)phenoxy]propoxy]-5-(octadecyloxy)phenyl]glycine]	22%	41%	–	–	57%	–	95%	–	–
CCCCCCCCCCCCCCCCCCOc1cc(OCCCCc2ccc3cc(O)c(O)cc3c2)cc(N(CC(=O)O)CC(=O)O)c1 [Example 154, N-(Carboxymethyl)-N-[3-[4-(2,3-dihydroxy-6-naphthalenyl)butoxy]-5-(octadecyloxy)phenyl]glycine]	–	78%	–	–	70%	–	96%	–	–
CCCCCCCCCCCCCCCCCCOc1cc(OCCCCC(=O)OC)cc(N(CC(=O)O)CC(=O)O)c1 [Example 64]	87%	61%	60 nM	0.65 ± 0.12 mL	69%	–	–	–	–
CCCCCCCCCCCCCCCCCCOc1cc(OCCOCCOCCOCC)cc(N(CC(=O)O)CC(=O)O)c1 [Example 151]	54%	43%	–	0.28 ± 0.16 mL	–	–	100%	–	–
CCCCCCCCCCCCCCCCCCOc1cc(OCC(=O)O)cc(N(CC(=O)O)CC(=O)O)c1 [Example 58c, N-[3-(carboxymethoxy)-5-(octadecyloxy)phenyl]-N-(carboxymethyl)glycine]	0%	39%	2800 nM	–	–	–	–	–	–
CCCCCCCCCCOc1cc(OCCCCCCCCCC)cc(N(CC(=O)O)CC(=O)O)c1 [Example 6, N-(Carboxymethyl)-N-[3,5-bis(decyloxy)phenyl]glycine]	13%	45%	240 nM	–	–	-0.04 ± 0.24 mL	–	–	17 nM
